Columns and labels:
[1] = tested on: REM sleep deprivation induced hyperalgesia; assay: REM sleep deprivation induced hyperalgesia (modified flowerpot technique, hot plate method); assay type: in vivo, Male albino Wistar rats
Source text: The modified flowerpot technique was used to induce REM sleep deprivation. In this method, rats are placed on elevated platforms in a water tank for 96 hrs. During REM sleep muscle atonia occurs as a result of which when an animal enters REM sleep it falls from the platform into the water. Therefore the animal wakes up and climbs onto platform again. This method prevents REM sleep and permits other sleep stages.
The paws of rats are very sensitive to heat at temperatures which are not damaging to the skin. The responses shown by rats placed on a hot plate are jumping, withdrawal of the paws and licking of the paws. This test is thus used to assess the pain threshold and the animal's response to mild painful stimuli.
To induce sleep deprivation, an acrylic box (24 cm×18 cm×18 cm) with platforms of height 9 cm and 6 cm diameter was used. Water was filled, in the box upto a level of 1 cm below the platform. 6 animals were placed on each platform for 96 hrs. One platform was kept vacant to reduce immobilization stress. […] The responses of the animals to painful stimuli were observed (licking of paws, jumping, paw withdrawal) and the duration of time the animal could remain on the hot plate was recorded. […] One hour after application of the test substances, the animals were again subjected to the hot plate and the response was evaluated. […]

[2] = tested on: carrageenan induced paw oedema; assay: Carrageenan induced paw oedema in rats (topical application, plethysmographic paw volume); details: mean ± SD, n = 6; for Paw volume, carrageenan induced paw oedema: topical application 7 days + day 8; for Percentage change in carrageenan induced paw oedema (paw volume): ((Vt−Vo)/Vo)×100

Question: For `O=C(O)Cc1ccccc1Nc1c(Cl)cccc1Cl` [Diclofenac], which “Increase in paw withdrawal time” value ([1]; after minus before formulation, hot plate) is on record?
Answer: 6.00

Question: What about the “Paw withdrawal time, before formulation” value ([1]; hot plate 50±2° C. after 96 hrs REM sleep deprivation, before application of test substance, cut-off 60 seconds, mean ± SD, n = 6) of the same molecule?
Answer: 6.67 ± 3.33 s

Question: And the “Paw volume, carrageenan induced paw oedema” value ([2]; 0 hr (immediately before carrageenan))?
Answer: 0.23 ± 0.05

Question: What about the “Paw volume, carrageenan induced paw oedema” value ([2]; 2 hr after carrageenan) of the same molecule?
Answer: 0.67 ± 0.06

Question: And the “Percentage change in carrageenan induced paw oedema (paw volume)” value (“Percentage change” below) ([2]; 2 hr vs 0 hr)?
Answer: 202.5 ± 79.48%

Question: And the “Paw volume, carrageenan induced paw oedema” value ([2]; 5 hr after carrageenan)?
Answer: 0.38 ± 0.05

Question: And the “Percentage change” value ([2]; 5 hr vs 0 hr)?
Answer: 75 ± 82.15 %

Question: What about the “Paw volume, carrageenan induced paw oedema” value ([2]; 24 hr after carrageenan) of the same molecule?
Answer: 0.20 ± 0.05

Question: What about the “Percentage change” value ([2]; 24 hr vs 0 hr) of the same molecule?
Answer: −16.66 ± 25.81 %
